Measured values: patent publication US20240130994A1, “IONIC LIQUID FORMULATIONS FOR TREATING DIABETES” (i2O Therapeutics, Inc., priority 2020, published 2024)

Assay: Physical form of choline-based ionic liquids at room temperature
Assay type: physicochemical
Protocol: Several ionic liquids comprising choline as a cation and various anions were synthesized. […] For anions not miscible with the aqueous choline bicarbonate solution, a co-solvent, such as ethanol, was added until a homogenous mixture formed. The mixture was stirred at room temperature until CO2 evolution ceased. Solvent was removed by rotary evaporation at 60° C. for 20 minutes, and each product was dried in a vacuum oven for 48 hours at 60° C.

[1] = cation:anion 1:1, room temperature
[2] = cation:anion 1:2, room temperature
[3] = cation:anion 2:1, room temperature

| Structure (SMILES) | Physical Form (Ratios Listed as Cation:Anion) [1] | Physical Form (Ratios Listed as Cation:Anion) [2] | other results |
| --- | --- | --- | --- |
| CC(CCC(C(=O)O)C(C)CC(C)(C)C)CC(C)(C)C (stereo not drawn) [2-(4,4-Dimethyl-2-pentanyl)-5,7,7-trimethyloctanoic Acid] | Solid at 1:1 | – | – |
| CC(C)Cc1ccc(C(C)C(=O)O)cc1 (stereo not drawn) [2-(4-Isobutylphenyl)propionic Acid] | Solid at 1:1 | – | – |
| CCCCCCCCC(CCCCCC)C(=O)O (stereo not drawn) [2-Hexyldecanoic Acid] | Liquid at 1:1 | – | – |
| O=C(O)CNC(=O)c1ccccc1O [2-Hydroxyhippuric Acid] | Solid at 1:1 | – | – |
| CC(C)CCCC(C)CC(=O)O (stereo not drawn) [3,7-Dimethyloctanoic Acid] | Solid at 1:1, 1:2 | Solid at 1:1, 1:2 | – |
| CCC(C)CCC(=O)O (stereo not drawn) [4-Methylhexanoic Acid] | Liquid at 1:1, 1:2 | Liquid at 1:1, 1:2 | – |
| CCCCC(C)CCC(=O)O (stereo not drawn) [4-Methyloctanoic Acid] | Liquid | Solid | – |
| CC(C)CCC(=O)O [4-Methylvaleric Acid] | – | Liquid at 1:2 | – |
| O=C(O)C1CC2C=CC1C2 (stereo not drawn) [5-Norbornene-2-carboxylic Acid] | Solid at 1:1 | – | – |
| O=C(O)CCCC[C@@H]1CCSS1 [(R)-α-Lipoic Acid] | Solid at 2:1, 1:1, 1:2, | Solid at 2:1, 1:1, 1:2, | Physical Form (Ratios Listed as Cation:Anion) [3]: Solid at 2:1, 1:1, 1:2, |
| CC(C)C1=CC2=CC[C@@H]3[C@](C)(CCC[C@@]3(C)C(=O)O)[C@H]2CC1 [Abietic Acid] | Solid at 1:1 | – | – |
| CC(=O)O [Acetic Acid] | Liquid at 2:1, 1:1, 1:2 | Liquid at 2:1, 1:1, 1:2 | Physical Form (Ratios Listed as Cation:Anion) [3]: Liquid at 2:1, 1:1, 1:2 |
| CCCCC/C=C\C/C=C\C/C=C\C/C=C\CCCC(=O)O [Arachidonic Acid] | Solid at 1:1 | – | – |
| O=C(O)/C=C/c1ccc(O)c(O)c1 [Caffeic Acid] | Solid at 1:1 | – | – |
| O=C(O)CC(O)(CC(=O)O)C(=O)O [Citric Acid] | Solid | – | Physical Form (Ratios Listed as Cation:Anion) [3]: Liquid; Physical Form (Ratios Listed as Cation:Anion) (cation:anion 3:1, room temperature): Liquid; Physical Form (Ratios Listed as Cation:Anion) (cation:anion 4:1, room temperature): Liquid |
| C/C=C/C(=O)O [Crotonic Acid] | Liquid at 1:1, 1:2 | Liquid at 1:1, 1:2 | – |
| O=C(O)[C@H](O)[C@@H](O)[C@@H](O)[C@H](O)CO [D-(+)-Galactonic Acid] | Solid at 1:1 | – | – |
| CCCCCCCCCC(=O)O [Decanoic Acid] | Solid | Solid | Physical Form (Ratios Listed as Cation:Anion) (cation:anion 1:1, room temperature, listed as decanoic acid): solid; Physical Form (Ratios Listed as Cation:Anion) (cation:anion 1:2, room temperature, listed as decanoic acid): solid; Physical Form (Ratios Listed as Cation:Anion) [3]: Liquid; Physical Form (Ratios Listed as Cation:Anion) (cation:anion 2:1, room temperature, listed as decanoic acid): liquid; appearance and physical form (room temperature, ratio as in label): waxy solid |
| CC/C=C\C/C=C\C/C=C\C/C=C\C/C=C\CCCC(=O)O [Eicosapentanoic Acid (EPA)] | Solid at 1:1 | – | – |
| O=c1oc2c(O)c(O)cc3c(=O)oc4c(O)c(O)cc1c4c23 [Ellagic Acid] | Solid at 1:1 | – | – |
| O=C(O)/C=C/C(=O)O [Fumaric Acid] | Solid | – | Physical Form (Ratios Listed as Cation:Anion) [3]: Liquid |
| CC(C)=CCC/C(C)=C/C(=O)O [Geranic Acid] | Liquid at 1:1, 1:2 | Liquid at 1:1, 1:2 | – |
| O=C(O)CCCC(=O)O [Glutaric Acid] | Liquid at 2:1, 1:1 | – | Physical Form (Ratios Listed as Cation:Anion) [3]: Liquid at 2:1, 1:1 |
| O=C(O)CO [Glycolic Acid] | Liquid at 2:1, 1:1 | – | Physical Form (Ratios Listed as Cation:Anion) [3]: Liquid at 2:1, 1:1 |
| CCCCCC(=O)O [Hexanoic Acid] | Liquid at 1:1, 1:2 | Liquid at 1:1, 1:2 | – |
| O=C1O[C@H]([C@@H](O)CO)C(O)=C1O [L-Ascorbic Acid] | Solid at 1:1 | – | – |
| N[C@@H](CCC(=O)N[C@@H](CS)C(=O)NCC(=O)O)C(=O)O [L-Glutathione reduced] | – | – | Physical Form (Ratios Listed as Cation:Anion) [3]: Solid at 2:1 |

| Structure (SMILES) | Physical Form (Ratios Listed as Cation:Anion) [1] | Physical Form (Ratios Listed as Cation:Anion) [2] | other results |
| --- | --- | --- | --- |
| CC(O)C(=O)O (stereo not drawn) [Lactic Acid] | Liquid at 1:1, 1:2 | Liquid at 1:1, 1:2 | – |
| CCCCCCCCCCCC(=O)O [Lauric Acid] | Solid at 1:1, 1:2 | Solid at 1:1, 1:2 | – |
| CC(=O)CCC(=O)O [Levulinic Acid] | Liquid at 1:1, 1:2 | Liquid at 1:1, 1:2 | – |
| O=C(O)/C=C\C(=O)O [Maleic Acid] | Liquid at 2:1, 1:1 | – | Physical Form (Ratios Listed as Cation:Anion) [3]: Liquid at 2:1, 1:1 |
| O=C(O)CC(O)C(=O)O (stereo not drawn) [Malic Acid] | Liquid at 2:1, 1:1 | – | Physical Form (Ratios Listed as Cation:Anion) [3]: Liquid at 2:1, 1:1 |
| O=C(O)CC(=O)O [Malonic Acid] | Liquid at 1:1 | – | – |
| O=C(O)C(O)c1ccccc1 (stereo not drawn) [Mandelic Acid] | Liquid at 1:1, 1:2 | Liquid at 1:1, 1:2 | – |
| C/C(=C\C(=O)O)C(=O)O [Mesaconic Acid] | Solid | – | Physical Form (Ratios Listed as Cation:Anion) [3]: Liquid |
| CCCCCCCCC(=O)O [Nonanoic Acid] | Solid at 1:1, 1:2 | Solid at 1:1, 1:2 | – |
| CCCCCCCC/C=C\CCCCCCCC(=O)O [Oleic Acid] | Solid at 1:1, 1:2 | Solid at 1:1, 1:2 | – |
| C=C(C)[C@@H]1CC=C(C(=O)O)CC1 [Perillic Acid] | Solid at 1:1 | – | – |
| O=P(O)(O)O [Phosphoric Acid] | Solid | Liquid | Physical Form (Ratios Listed as Cation:Anion) [3]: Liquid |
| O=C(O)CCCCCC(=O)O [Pimelic Acid] | Liquid at 2:1, 1:1 | – | Physical Form (Ratios Listed as Cation:Anion) [3]: Liquid at 2:1, 1:1 |
| CCC(=O)O [Propionic Acid] | Liquid at 2:1, 1:1 | – | Physical Form (Ratios Listed as Cation:Anion) [3]: Liquid at 2:1, 1:1 |
| O=C1CC[C@@H](C(=O)O)N1 [Pyroglutamic Acid] | Solid | Liquid | – |
| CC(=O)C(=O)O [Pyruvic Acid] | Liquid at 1:1, 1:2 | Liquid at 1:1, 1:2 | – |
| CCCCCC[C@@H](O)C/C=C\CCCCCCCC(=O)O [Ricinoleic Acid] | Liquid at 1:1, 1:2 | Liquid at 1:1, 1:2 | – |
| C/C=C/C=C/C(=O)O [Sorbic Acid] | Liquid at 1:1, 1:2 | Liquid at 1:1, 1:2 | – |
| O=C(O)CCC(=O)O [Succinic Acid] | Liquid at 2:1, 1:1, 1:2 | Liquid at 2:1, 1:1, 1:2 | Physical Form (Ratios Listed as Cation:Anion) [3]: Liquid at 2:1, 1:1, 1:2 |
| COc1cc(C(=O)O)cc(OC)c1O [Syringic Acid] | Solid at 1:1 | – | – |
| CCCCCCC/C=C/C(=O)O [Trans-2-Decenoic Acid] | Solid at 1:1, 1:2 | Solid at 1:1, 1:2 | – |
| CCC/C=C/C(=O)O [Trans-2-Hexenoic Acid] | Liquid at 1:1, 1:2 | Liquid at 1:1, 1:2 | – |
| CCCCC/C=C/C(=O)O [Trans-2-Octenoic Acid] | Liquid at 1:1, 1:2 | Liquid at 1:1, 1:2 | – |
| CCCC/C=C/CC(=O)O [Trans-3-Octenoic Acid] | Liquid at 1:1, 1:2 | Liquid at 1:1, 1:2 | – |
| C=CCCCCCC(=O)O [Trans-7-Octenoic Acid] | Liquid at 1:1, 1:2 | Liquid at 1:1, 1:2 | – |
| COc1cc(/C=C/C(=O)O)ccc1O [Trans-Ferulic Acid] | Solid at 1:1 | – | – |
